In ChEMBL document CHEMBL1201862, “PubChem BioAssay data set” (2004):
Calls of active or inactive are those of the source.

How the values were obtained:
[1] = molecular target: Eukaryotic translation initiation factor 4H (Homo sapiens, UniProt Q15056); assay: human eIF4H binding inhibitors, primary screen, translation initiation inhibitor project, biochemical, uHTS, fluorescence polarization (AID 2012)
[2] = molecular target: Polyadenylate-binding protein 1 (Homo sapiens, UniProt P11940); assay: PABP poly(A) RNA binding inhibitors, primary screen, biochemical, fluorescence polarization, uHTS (AID 2014)
Procathepsin L = Procathepsin L (Homo sapiens, UniProt P07711)
[3] = molecular target: T1, Heat shock factor protein 1 (Mus musculus, UniProt P38532); assay: inhibition of MG132-induced HSE-luciferase signal, confirmation, cell-based, NIH3T3, luminescence, dose retest (AID 2382); assay type: functional;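 further: NIH3T3 fibroblasts with HSF1-driven luciferase reporter stressed by proteasome inhibitor MG132; luminescence from HSF1-driven luciferase expression after 8 hours of MG132 stress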
T1 sequence (P38532 whole entry): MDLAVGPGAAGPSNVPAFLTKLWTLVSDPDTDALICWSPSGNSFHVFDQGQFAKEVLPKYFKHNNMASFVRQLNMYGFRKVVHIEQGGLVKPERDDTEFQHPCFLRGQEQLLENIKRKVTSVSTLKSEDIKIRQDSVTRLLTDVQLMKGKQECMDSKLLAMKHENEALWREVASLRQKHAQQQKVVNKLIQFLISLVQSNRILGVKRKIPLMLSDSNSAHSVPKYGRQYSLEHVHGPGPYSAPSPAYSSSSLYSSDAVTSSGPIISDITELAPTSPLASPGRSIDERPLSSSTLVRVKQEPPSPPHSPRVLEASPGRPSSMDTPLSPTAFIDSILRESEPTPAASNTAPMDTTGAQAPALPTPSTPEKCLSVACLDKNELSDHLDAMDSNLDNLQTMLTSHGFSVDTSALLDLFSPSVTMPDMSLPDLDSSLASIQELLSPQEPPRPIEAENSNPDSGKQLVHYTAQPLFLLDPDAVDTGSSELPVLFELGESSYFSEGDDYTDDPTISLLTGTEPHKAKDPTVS

Aspartyl aminopeptidase = Aspartyl aminopeptidase (Plasmodium falciparum 3D7, UniProt Q8I2J3)
Cytochrome P450 3A4 = Cytochrome P450 3A4 (Homo sapiens, UniProt P08684); conditions: Potency;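 further: confirmatory qHTS run detecting inhibitors and substrates of CYP3A4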
[4] = molecular target: Photoreceptor-specific nuclear receptor (Homo sapiens, UniProt Q9Y5X4); assay type: functional;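 further: potency for compounds that break the NR2E3 corepressor complex and count as activators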
[5] = molecular target: Peroxisome proliferator-activated receptor gamma/Nuclear receptor corepressor 2 (Homo sapiens, UniProt P37231+Q9Y618); assay type: functional
[6] = molecular target: Peroxisome proliferator-activated receptor gamma/Nuclear receptor coactivator 3 (Homo sapiens, UniProt P37231); assay: TR-FRET dose response biochemical High Throughput Screening assay for agonists of the steroid receptor coactivator 3 (SRC-3) recruitment by the peroxisome proliferator-activated receptor gamma (PPAR gamma): non-selective agonists. [Related pubchem assays: 1301 (Confirmation screen.), 1048 (Primary screen.)]; assay type: functional
[7] = molecular target: Peroxisome proliferator-activated receptor gamma/Nuclear receptor coactivator 2 (Homo sapiens, UniProt P37231); assay: (§1) TR-FRET dose response biochemical High Throughput Screening assay for agonists of the steroid receptor coactivator 2 (SRC-2) recruitment by the peroxisome proliferator-activated receptor gamma (PPAR gamma): non-selective agonists. [Related pubchem assays: 1297, 1032 ]; assay type: functional
[8] = molecular target: Peroxisome proliferator-activated receptor gamma/Nuclear receptor coactivator 1 (Homo sapiens, UniProt P37231); assay: as §1, with “1 (SRC-1)” for “2 (SRC-2)”, “assays (depositor defined):AID1300, AID1808, AID504735, AID631]” for “assays: 1297, 1032 ]”; assay type: protein assay
Leucine aminopeptidase = molecular target: T2, Leucine aminopeptidase (Plasmodium falciparum 3D7, UniProt Q8IL11); assay: P. falciparum M17LAP inhibitors, primary screen, biochemical, fluorogenic H-Leu-NHMec substrate, 1536-well (AID 1619); assay type: functional
T2 sequence (Q8IL11 whole entry): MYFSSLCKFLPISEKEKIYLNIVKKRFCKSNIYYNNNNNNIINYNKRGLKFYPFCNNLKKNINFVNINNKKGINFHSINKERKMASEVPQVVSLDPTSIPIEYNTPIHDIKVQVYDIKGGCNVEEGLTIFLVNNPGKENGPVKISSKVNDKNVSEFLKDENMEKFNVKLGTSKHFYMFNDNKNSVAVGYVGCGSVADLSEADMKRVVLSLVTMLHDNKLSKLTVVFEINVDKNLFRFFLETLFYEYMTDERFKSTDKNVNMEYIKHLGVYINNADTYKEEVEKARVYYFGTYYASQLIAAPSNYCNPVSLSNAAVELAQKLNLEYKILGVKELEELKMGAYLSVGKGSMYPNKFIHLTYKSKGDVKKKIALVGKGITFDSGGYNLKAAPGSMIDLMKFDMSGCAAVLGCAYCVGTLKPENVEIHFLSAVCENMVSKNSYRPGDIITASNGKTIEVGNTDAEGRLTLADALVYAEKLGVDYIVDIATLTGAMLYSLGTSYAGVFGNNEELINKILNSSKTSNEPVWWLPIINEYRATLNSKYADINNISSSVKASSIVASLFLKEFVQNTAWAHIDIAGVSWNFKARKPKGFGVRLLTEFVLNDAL

Cytochrome P450 2C9 = Cytochrome P450 2C9 (Homo sapiens, UniProt P11712); conditions: Potency
[9] = molecular target: Lysosomal acid glucosylceramidase (Homo sapiens, UniProt P04062); assay: Dose response cell-based high throughput screening assay to identify enhancers of beta-glucosidase activity. [Related pubchem assays: 784 ]; assay type: functional
[10] = molecular target: Acyl-homoserine lactone acylase PvdQ (Pseudomonas aeruginosa (strain LESB58), UniProt Q9I194); assay: P. aeruginosa PvdQ acylase inhibitors, dose response, biochemical, fluorescence, plate reader and imaging, cherry-picks (AID 493231)
Sequence of Acyl-homoserine lactone acylase PvdQ (Q9I194 24-193 limits assumed): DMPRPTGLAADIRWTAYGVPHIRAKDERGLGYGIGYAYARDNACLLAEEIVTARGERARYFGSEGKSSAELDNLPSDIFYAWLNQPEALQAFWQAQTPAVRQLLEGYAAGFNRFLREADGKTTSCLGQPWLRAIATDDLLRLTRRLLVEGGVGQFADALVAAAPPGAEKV
Sequence of Acyl-homoserine lactone acylase PvdQ (Q9I194 217-762 limits assumed): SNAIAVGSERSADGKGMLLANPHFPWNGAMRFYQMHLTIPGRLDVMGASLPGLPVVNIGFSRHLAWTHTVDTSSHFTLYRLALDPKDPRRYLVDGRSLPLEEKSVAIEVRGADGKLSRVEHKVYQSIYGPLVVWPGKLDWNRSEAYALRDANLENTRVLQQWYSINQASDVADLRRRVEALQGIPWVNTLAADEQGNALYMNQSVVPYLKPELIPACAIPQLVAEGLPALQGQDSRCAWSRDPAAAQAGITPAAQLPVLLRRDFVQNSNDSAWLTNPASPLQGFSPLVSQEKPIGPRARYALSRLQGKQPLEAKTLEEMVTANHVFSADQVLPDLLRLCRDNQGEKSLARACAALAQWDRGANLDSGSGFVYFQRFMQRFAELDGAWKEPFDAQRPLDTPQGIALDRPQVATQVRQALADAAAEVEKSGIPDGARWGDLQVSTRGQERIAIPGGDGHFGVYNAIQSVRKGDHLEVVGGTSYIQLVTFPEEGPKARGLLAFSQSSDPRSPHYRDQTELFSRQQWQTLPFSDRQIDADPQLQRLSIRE

Sequence of Cytochrome P450 3A4 (P08684 whole entry): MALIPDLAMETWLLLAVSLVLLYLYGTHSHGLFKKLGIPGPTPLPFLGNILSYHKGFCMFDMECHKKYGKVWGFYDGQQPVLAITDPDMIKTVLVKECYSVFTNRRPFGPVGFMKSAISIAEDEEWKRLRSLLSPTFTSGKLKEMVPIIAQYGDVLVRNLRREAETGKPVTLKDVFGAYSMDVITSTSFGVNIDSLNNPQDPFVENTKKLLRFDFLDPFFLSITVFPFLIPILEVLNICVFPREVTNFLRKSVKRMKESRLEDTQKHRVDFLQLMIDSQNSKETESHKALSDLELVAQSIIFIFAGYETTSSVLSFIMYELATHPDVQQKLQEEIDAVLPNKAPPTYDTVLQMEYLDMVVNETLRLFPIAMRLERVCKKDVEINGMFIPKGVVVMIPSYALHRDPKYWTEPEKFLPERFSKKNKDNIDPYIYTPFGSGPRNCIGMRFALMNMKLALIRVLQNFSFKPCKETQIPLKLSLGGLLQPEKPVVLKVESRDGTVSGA
Sequence of Aspartyl aminopeptidase (Q8I2J3 whole entry): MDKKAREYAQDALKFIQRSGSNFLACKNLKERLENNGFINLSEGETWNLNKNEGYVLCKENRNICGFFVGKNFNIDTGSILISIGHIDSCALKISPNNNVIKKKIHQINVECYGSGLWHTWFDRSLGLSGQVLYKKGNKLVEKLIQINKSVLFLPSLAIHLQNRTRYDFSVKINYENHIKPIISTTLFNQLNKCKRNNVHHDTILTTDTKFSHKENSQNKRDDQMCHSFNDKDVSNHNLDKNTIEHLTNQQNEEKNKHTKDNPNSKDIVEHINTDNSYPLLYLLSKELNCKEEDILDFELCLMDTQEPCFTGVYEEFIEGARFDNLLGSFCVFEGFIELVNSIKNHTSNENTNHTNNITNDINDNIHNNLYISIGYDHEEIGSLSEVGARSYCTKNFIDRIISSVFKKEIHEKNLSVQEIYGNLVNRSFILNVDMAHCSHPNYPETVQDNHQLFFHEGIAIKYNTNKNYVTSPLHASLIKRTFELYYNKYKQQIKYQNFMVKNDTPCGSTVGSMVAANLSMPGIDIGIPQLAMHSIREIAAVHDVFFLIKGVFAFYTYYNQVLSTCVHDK
Sequence of Lysosomal acid glucosylceramidase (P04062 whole entry): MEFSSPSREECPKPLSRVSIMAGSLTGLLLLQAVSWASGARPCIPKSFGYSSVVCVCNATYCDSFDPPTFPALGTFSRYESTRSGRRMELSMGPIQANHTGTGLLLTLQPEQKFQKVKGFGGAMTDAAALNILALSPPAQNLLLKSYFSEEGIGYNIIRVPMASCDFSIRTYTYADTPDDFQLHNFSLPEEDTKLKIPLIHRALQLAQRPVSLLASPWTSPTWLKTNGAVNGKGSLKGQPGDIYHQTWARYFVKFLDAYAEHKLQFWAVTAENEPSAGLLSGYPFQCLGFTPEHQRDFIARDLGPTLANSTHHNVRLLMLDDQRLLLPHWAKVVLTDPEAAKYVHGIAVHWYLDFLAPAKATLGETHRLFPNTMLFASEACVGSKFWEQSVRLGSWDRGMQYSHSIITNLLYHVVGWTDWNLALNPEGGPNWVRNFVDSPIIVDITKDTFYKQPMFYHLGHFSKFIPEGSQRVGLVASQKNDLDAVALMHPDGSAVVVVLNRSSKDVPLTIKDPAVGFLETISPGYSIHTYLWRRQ
Sequence of Cytochrome P450 2C9 (P11712 whole entry): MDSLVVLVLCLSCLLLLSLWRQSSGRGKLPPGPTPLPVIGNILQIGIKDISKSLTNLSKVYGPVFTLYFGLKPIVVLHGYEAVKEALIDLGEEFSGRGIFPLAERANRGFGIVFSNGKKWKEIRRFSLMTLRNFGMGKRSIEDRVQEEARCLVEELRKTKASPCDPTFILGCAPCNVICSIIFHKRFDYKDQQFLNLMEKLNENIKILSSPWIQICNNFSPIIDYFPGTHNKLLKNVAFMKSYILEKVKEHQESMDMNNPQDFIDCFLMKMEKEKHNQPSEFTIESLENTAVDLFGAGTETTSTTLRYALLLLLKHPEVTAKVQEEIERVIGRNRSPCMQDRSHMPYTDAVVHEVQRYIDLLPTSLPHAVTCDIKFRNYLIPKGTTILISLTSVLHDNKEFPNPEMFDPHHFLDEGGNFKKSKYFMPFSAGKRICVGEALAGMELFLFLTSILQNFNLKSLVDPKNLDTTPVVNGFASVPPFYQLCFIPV
Sequence of Polyadenylate-binding protein 1 (P11940 whole entry): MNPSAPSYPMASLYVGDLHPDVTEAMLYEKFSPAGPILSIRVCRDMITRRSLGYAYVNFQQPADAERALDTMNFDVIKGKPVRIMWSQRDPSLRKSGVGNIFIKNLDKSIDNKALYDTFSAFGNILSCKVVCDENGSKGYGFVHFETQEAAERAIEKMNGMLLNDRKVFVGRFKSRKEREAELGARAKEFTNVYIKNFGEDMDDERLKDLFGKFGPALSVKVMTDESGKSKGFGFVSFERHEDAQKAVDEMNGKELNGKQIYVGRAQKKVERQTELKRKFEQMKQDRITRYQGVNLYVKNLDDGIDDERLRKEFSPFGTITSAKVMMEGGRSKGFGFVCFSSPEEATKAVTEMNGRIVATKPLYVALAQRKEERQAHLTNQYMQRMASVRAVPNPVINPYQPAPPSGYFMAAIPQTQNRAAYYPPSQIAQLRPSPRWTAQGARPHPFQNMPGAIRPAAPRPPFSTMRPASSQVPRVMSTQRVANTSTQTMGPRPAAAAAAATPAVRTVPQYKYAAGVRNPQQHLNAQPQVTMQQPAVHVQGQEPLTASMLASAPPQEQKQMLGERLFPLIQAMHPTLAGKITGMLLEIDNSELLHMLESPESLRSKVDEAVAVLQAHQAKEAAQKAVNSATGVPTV
Sequence of Procathepsin L (P07711 whole entry): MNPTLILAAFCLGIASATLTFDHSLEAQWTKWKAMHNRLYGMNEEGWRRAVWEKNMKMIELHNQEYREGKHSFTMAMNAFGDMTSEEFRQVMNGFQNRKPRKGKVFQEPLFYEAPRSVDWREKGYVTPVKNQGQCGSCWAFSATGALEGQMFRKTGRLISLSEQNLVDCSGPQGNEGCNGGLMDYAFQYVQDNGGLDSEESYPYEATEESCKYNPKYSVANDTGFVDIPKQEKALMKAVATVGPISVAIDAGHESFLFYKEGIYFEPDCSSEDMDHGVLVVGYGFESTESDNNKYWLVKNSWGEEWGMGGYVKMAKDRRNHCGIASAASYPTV
Sequence of Photoreceptor-specific nuclear receptor (Q9Y5X4 whole entry): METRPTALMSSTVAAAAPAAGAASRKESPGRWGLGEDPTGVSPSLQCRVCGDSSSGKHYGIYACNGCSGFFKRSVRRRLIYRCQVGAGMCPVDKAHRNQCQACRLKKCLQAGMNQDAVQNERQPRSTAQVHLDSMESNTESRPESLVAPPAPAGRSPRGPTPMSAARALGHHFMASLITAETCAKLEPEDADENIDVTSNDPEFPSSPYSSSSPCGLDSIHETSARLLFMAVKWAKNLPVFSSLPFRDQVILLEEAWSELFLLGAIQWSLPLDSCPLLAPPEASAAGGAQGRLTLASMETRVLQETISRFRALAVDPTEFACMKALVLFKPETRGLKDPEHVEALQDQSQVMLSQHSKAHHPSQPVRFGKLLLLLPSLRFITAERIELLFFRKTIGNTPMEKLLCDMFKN

SMILES: Cn1c(SCC(=O)NC(C)(C)C)nnc1-c1cccc(NC(=O)c2ccccc2F)c1
- IC50 [1]: > 100 µM (inactive)
- IC50 [2]: 7.07 µM (active)

SMILES: Cc1c(C(=O)c2no[n+]([O-])c2C(=O)c2cnn(C)c2C)cnn1C
- IC50 (Procathepsin L): > 59.6 µM (not active)
- EC50 [3]: 5.9 µM (active)
- IC50 (Aspartyl aminopeptidase): 1.58 µM (active)

SMILES: Nc1ccc(Cl)cc1Cl
- AC50 (Cytochrome P450 3A4): 31.6 µM (inconclusive)

SMILES: Cn1c(=S)[nH]c2c(c1=O)C(C)(C)Cc1ccccc1-2
- IC50 [4]: > 39.8 µM (not active)
- IC50 [5]: 3.98 µM (active)
- EC50 [6]: > 79.4 µM (not active)
- EC50 [7]: > 79.4 µM (not active)
- EC50 [8]: > 79.4 µM (inactive)
- IC50 (Leucine aminopeptidase): 1.9 µM (active)

SMILES: C[C@]12C=CC(=O)C=C1CC[C@@H]1[C@H]3C[C@@H](O)[C@](O)(C(=O)CO)[C@]3(C)C[C@H](O)[C@]12F
- AC50 (Cytochrome P450 2C9): 25.1 µM (inconclusive)

SMILES: Cc1cccn2c(=O)c(/C=N/c3ccc(Cl)cc3)c(NCCO)nc12
- EC50 [9]: > 50 µM (not active)

SMILES: CCOC(=O)c1ccc(N2Cc3ccccc3C2)cc1O
- AC50 [10]: > 100 µM (inactive)
